Assay in all cases: relative viability (nuclei count vs DMSO), 5 days (fraction); higher = more cells survive
Compound in assay [1]: C=CCNC1=C2C[C@@H](C)C[C@H](OC)[C@H](O)[C@@H](C)/C=C(\C)[C@H](OC(N)=O)[C@@H](OC)/C=C\C=C(/C)C(=O)NC(=CC1=O)C2=O [17-AAG] + Nc1nc2[nH]cc(CCc3ccc(C(=O)N[C@@H](CCC(=O)O)C(=O)O)cc3)c2c(=O)[nH]1 [Pemetrexed] (partner 0.2 µM)
The procedure, abridged: (§1)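 After 5 days of treatment, lung cancer cells in 1536-well plates were fixed and stained in a single step (final 0.05% Triton X-100, 1% formaldehyde, 1 ug/ml Hoechst) and their nuclei counted on 4× images. Treatment had been applied by pin tool the day after seeding as one drug alone or as a fixed anchor-drug dose with five library-drug doses (not always all listed) in √10 steps. Relative viability is the nuclei count of treated wells divided by that of vehicle wells, and values are medians of duplicate plates.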

Compound in assay [2]: C=CCNC1=C2C[C@@H](C)C[C@H](OC)[C@H](O)[C@@H](C)/C=C(\C)[C@H](OC(N)=O)[C@@H](OC)/C=C\C=C(/C)C(=O)NC(=CC1=O)C2=O [17-AAG] + COc1cc2c(Oc3ccc(NC(=O)C4(C(=O)Nc5ccc(F)cc5)CC4)cc3F)ccnc2cc1OCCCN1CCOCC1 [Foretinib] (partner 0.25 µM)
The gist of the method:
as §1

Compound in assay [3]: C=CCNC1=C2C[C@@H](C)C[C@H](OC)[C@H](O)[C@@H](C)/C=C(\C)[C@H](OC(N)=O)[C@@H](OC)/C=C\C=C(/C)C(=O)NC(=CC1=O)C2=O [17-AAG] + Cc1nc(NC(=O)N2CCC[C@H]2C(N)=O)sc1-c1ccnc(C(C)(C)C(F)(F)F)c1 [Alpelisib] (partner 2 µM)
The procedure, abridged:
as §1

Compound in assay [4]: C=CCNC1=C2C[C@@H](C)C[C@H](OC)[C@H](O)[C@@H](C)/C=C(\C)[C@H](OC(N)=O)[C@@H](OC)/C=C\C=C(/C)C(=O)NC(=CC1=O)C2=O [17-AAG] + O=C(c1cc(Cc2n[nH]c(=O)c3ccccc23)ccc1F)N1CCN(C(=O)C2CC2)CC1 [Olaparib] (partner 8 µM)
The gist of the method:
as §1

Relative viability data for seven cell lines are collected here from the supplement of paper PMC10307832.

For the cell line NCI-H2347, the relative viability was determined as 0.426 in assay [1] (first compound 0.00128 µM); 0.463 in assay [1] (first compound 0.004048 µM); 0.517 in assay [1] (first compound 0.0128 µM); 0.376 in assay [1] (first compound 0.04048 µM); 0.331 in assay [1] (first compound 0.128 µM); 1.03 in assay [2] (first compound 0.004048 µM). In addition, the relative viability in assay [2] (first compound 0.0128 µM) came to 0.859; in assay [2] (first compound 0.04048 µM) it was 0.35; in assay [2] (first compound 0.128 µM) it was 0.413; in assay [3] (first compound 0.00128 µM) it was 1.12; in assay [3] (first compound 0.004048 µM) it was 0.961; in assay [3] (first compound 0.0128 µM) it was 1.1. For the same cell line, the relative viability in assay [3] (first compound 0.04048 µM) was determined as 0.565; in assay [3] (first compound 0.128 µM), 0.417; in assay [4] (first compound 0.00128 µM), 0.589; in assay [4] (first compound 0.004048 µM) it was 0.607; in assay [4] (first compound 0.0128 µM) it was 0.496; in assay [4] (first compound 0.04048 µM), 0.349. Besides, the relative viability in assay [4] (first compound 0.128 µM) was 0.341.
Take A-427: the relative viability was determined as 0.974 in assay [1] (first compound 0.00128 µM); 0.961 in assay [1] (first compound 0.004048 µM); 0.97 in assay [1] (first compound 0.0128 µM); 0.321 in assay [1] (first compound 0.04048 µM); 0.265 in assay [1] (first compound 0.128 µM); 1.11 in assay [2] (first compound 0.00128 µM). The relative viability in assay [2] (first compound 0.004048 µM) was 0.983; in assay [2] (first compound 0.0128 µM) it was 1.05; in assay [2] (first compound 0.04048 µM), 1.2; in assay [2] (first compound 0.128 µM), 0.847; in assay [3] (first compound 0.00128 µM), 1.05; in assay [3] (first compound 0.004048 µM) it was 1.15. Besides, the relative viability is 1.12 in assay [3] (first compound 0.0128 µM); 1.1 in assay [3] (first compound 0.04048 µM); 0.995 in assay [3] (first compound 0.128 µM); 0.814 in assay [4] (first compound 0.00128 µM); 0.686 in assay [4] (first compound 0.004048 µM); 0.806 in assay [4] (first compound 0.0128 µM). Further, the relative viability came to 0.606 in assay [4] (first compound 0.04048 µM) and 0.241 in assay [4] (first compound 0.128 µM).
Turning to LCLC-97TM1, the relative viability in assay [1] (first compound 0.00128 µM) worked out at 0.188; in assay [1] (first compound 0.004048 µM) it was 0.204; in assay [1] (first compound 0.0128 µM), 0.186; in assay [1] (first compound 0.04048 µM), 0.206; in assay [1] (first compound 0.128 µM), 0.116; in assay [2] (first compound 0.00128 µM), 0.973. The relative viability was determined as 0.897 in assay [2] (first compound 0.004048 µM); 0.958 in assay [2] (first compound 0.0128 µM); 0.991 in assay [2] (first compound 0.04048 µM); 0.631 in assay [2] (first compound 0.128 µM); 0.204 in assay [3] (first compound 0.00128 µM); 0.294 in assay [3] (first compound 0.004048 µM). In addition, the relative viability in assay [3] (first compound 0.0128 µM) worked out at 0.235; in assay [3] (first compound 0.04048 µM) it was 0.26; in assay [3] (first compound 0.128 µM), 0.161; in assay [4] (first compound 0.00128 µM), 0.423; in assay [4] (first compound 0.004048 µM) it was 0.359; in assay [4] (first compound 0.0128 µM), 0.406. The relative viability was determined as 0.302 in assay [4] (first compound 0.04048 µM) and 0.255 in assay [4] (first compound 0.128 µM).
Take HCC-15: the relative viability in assay [1] (first compound 0.00128 µM) is 0.23; in assay [1] (first compound 0.004048 µM), 0.236; in assay [1] (first compound 0.0128 µM) it was 0.216; in assay [1] (first compound 0.04048 µM) it was 0.144; in assay [1] (first compound 0.128 µM) it was 0.138; in assay [2] (first compound 0.00128 µM), 0.907. In addition, the relative viability in assay [2] (first compound 0.004048 µM) is 0.718; in assay [2] (first compound 0.0128 µM) it was 0.29; in assay [2] (first compound 0.04048 µM), 0.137; in assay [2] (first compound 0.128 µM) it was 0.12; in assay [3] (first compound 0.00128 µM), 0.948; in assay [3] (first compound 0.004048 µM) it was 0.772. The relative viability turned out to be 0.587 in assay [3] (first compound 0.0128 µM); 0.403 in assay [3] (first compound 0.04048 µM); 0.16 in assay [3] (first compound 0.128 µM); 0.726 in assay [4] (first compound 0.00128 µM); 0.71 in assay [4] (first compound 0.004048 µM); 0.306 in assay [4] (first compound 0.0128 µM). For the same cell line, the relative viability in assay [4] (first compound 0.04048 µM) turned out to be 0.332; in assay [4] (first compound 0.128 µM), 0.15.
Consider NCI-H650, for which the relative viability worked out at 1.03 in assay [1] (first compound 0.00128 µM); 0.895 in assay [1] (first compound 0.004048 µM); 0.91 in assay [1] (first compound 0.0128 µM); 0.657 in assay [1] (first compound 0.04048 µM); 0.236 in assay [1] (first compound 0.128 µM); 1.04 in assay [2] (first compound 0.00128 µM). In addition, the relative viability in assay [2] (first compound 0.004048 µM) came to 1.02; in assay [2] (first compound 0.0128 µM), 1; in assay [2] (first compound 0.04048 µM), 0.934; in assay [2] (first compound 0.128 µM) it was 0.249; in assay [3] (first compound 0.00128 µM) it was 1.19; in assay [3] (first compound 0.004048 µM), 1.09. For the same cell line, the relative viability stood at 1.26 in assay [3] (first compound 0.0128 µM); 0.855 in assay [3] (first compound 0.04048 µM); 0.326 in assay [3] (first compound 0.128 µM); 0.392 in assay [4] (first compound 0.00128 µM); 0.355 in assay [4] (first compound 0.004048 µM); 0.412 in assay [4] (first compound 0.0128 µM). Also, the relative viability came out at 0.212 in assay [4] (first compound 0.04048 µM) and 0.0846 in assay [4] (first compound 0.128 µM).
As to UMC-11, the relative viability in assay [1] (first compound 0.00128 µM) came to 0.793; in assay [1] (first compound 0.004048 µM), 0.741; in assay [1] (first compound 0.0128 µM) it was 0.576; in assay [1] (first compound 0.04048 µM), 0.246; in assay [1] (first compound 0.128 µM), 0.183; in assay [2] (first compound 0.00128 µM), 1.02. Also, the relative viability is 1.04 in assay [2] (first compound 0.004048 µM); 0.847 in assay [2] (first compound 0.0128 µM); 0.27 in assay [2] (first compound 0.04048 µM); 0.174 in assay [2] (first compound 0.128 µM); 1.05 in assay [3] (first compound 0.00128 µM); 0.855 in assay [3] (first compound 0.004048 µM). For the same cell line, the relative viability turned out to be 0.658 in assay [3] (first compound 0.0128 µM); 0.211 in assay [3] (first compound 0.04048 µM); 0.129 in assay [3] (first compound 0.128 µM); 0.519 in assay [4] (first compound 0.00128 µM); 0.376 in assay [4] (first compound 0.004048 µM); 0.261 in assay [4] (first compound 0.0128 µM). Moreover, the relative viability in assay [4] (first compound 0.04048 µM) came out at 0.0963; in assay [4] (first compound 0.128 µM), 0.174.
NCI-H1651: the relative viability in assay [1] (first compound 0.00128 µM) amounted to 0.635; in assay [1] (first compound 0.004048 µM), 0.605; in assay [1] (first compound 0.0128 µM) it was 0.585; in assay [1] (first compound 0.04048 µM), 0.536; in assay [1] (first compound 0.128 µM), 0.173; in assay [2] (first compound 0.00128 µM), 0.788. Also, the relative viability came out at 0.664 in assay [2] (first compound 0.004048 µM); 0.423 in assay [2] (first compound 0.0128 µM); 0.15 in assay [2] (first compound 0.04048 µM); 0.161 in assay [2] (first compound 0.128 µM); 0.972 in assay [3] (first compound 0.00128 µM); 0.895 in assay [3] (first compound 0.004048 µM). In addition, the relative viability in assay [3] (first compound 0.0128 µM) stood at 0.902; in assay [3] (first compound 0.04048 µM) it was 0.27; in assay [3] (first compound 0.128 µM), 0.157; in assay [4] (first compound 0.00128 µM), 0.173; in assay [4] (first compound 0.004048 µM), 0.19; in assay [4] (first compound 0.0128 µM), 0.21. In addition, the results for the relative viability in assay [4] (first compound 0.04048 µM) and in assay [4] (first compound 0.128 µM) were 0.153 and 0.159, respectively.
